Measured values published in ChEMBL document CHEMBL3400008, “Potent and selective Bruton's tyrosine kinase inhibitors: discovery of GDC-0834” (Bioorg Med Chem Lett, 2015).
pIC50: −log10 of the molar value. In brackets after ≈: the same amount, converted by molar mass.

Columns and labels:
[1] = biological target: Tyrosine-protein kinase BTK (Mus musculus, UniProt P35991)
[2] = Oral bioavailability in rat compound administered as solution in 20% (v/v) cremophor EL and 10% (v/v) ethanol in water; assay type: ADME, organism-based; settings: in vivo
[3] = Clearance in rat; assay type: ADME, organism-based; settings: in vivo
[4] = biological target: T1, Tyrosine-protein kinase BTK (Homo sapiens, UniProt Q06187)
Homo sapiens [5] = assay: Drug metabolism in healthy human plasma treated with GDC-0834 at 35 to 105 mg, po; assay type: ADME, organism-based; settings: in vivo
[6] = biological target: T1, Tyrosine-protein kinase BTK; assay: Inhibition of BTK (unknown origin) after 1 hr by FRET assay
Salmonella typhimurium [7] = assay: Toxicity in Salmonella typhimurium TA100 in presence of S9 fraction; assay type: organism-based; settings: salmonella enterica subsp. enterica serovar typhimurium
Salmonella typhimurium [8] = assay: Toxicity in Salmonella typhimurium TA100 in absence of S9 fraction; assay type: organism-based; settings: salmonella enterica subsp. enterica serovar typhimurium
[9] = Oral bioavailability in dog compound administered as solution in 60% polyethylene glycol 400 in water; assay type: ADME, organism-based, Canis lupus familiaris; settings: in vivo
Salmonella typhimurium [10] = assay: Toxicity in Salmonella typhimurium TA98 in presence of S9 fraction; assay type: organism-based; settings: salmonella enterica subsp. enterica serovar typhimurium
Homo sapiens [11] = assay: Drug metabolism in healthy human plasma assessed as formation of M1 metabolite at 35 to 105 mg, po; assay type: ADME, organism-based; settings: in vivo
hERG (KCNH2) = hERG (KCNH2) (Homo sapiens, UniProt Q12809); assay: Inhibition of human ERG at 10 uM
[12] = Oral bioavailability in mouse; assay type: ADME, organism-based; settings: in vivo
[13] = Oral bioavailability in dog compound administered as as suspension in crystalline freebase in 0.5% (w/v) methylcellulose and 0.2% (w/v) polysorbate 80 in water; assay type: ADME, organism-based, Canis lupus familiaris; settings: in vivo
[14] = Clearance in dog; assay type: ADME, organism-based, Canis lupus familiaris; settings: in vivo
Salmonella typhimurium [15] = assay: Toxicity in Salmonella typhimurium TA98 in absence of S9 fraction; assay type: organism-based; settings: salmonella enterica subsp. enterica serovar typhimurium
[16] = Clearance in cynomolgus monkey; assay type: ADME, organism-based, Macaca fascicularis; settings: in vivo
[17] = Oral bioavailability in cynomolgus monkey; assay type: ADME, organism-based, Macaca fascicularis; settings: in vivo
[18] = Clearance in mouse; assay type: ADME, organism-based; settings: in vivo
[19] = Solubility of the compound in fasted-state simulated intestinal fluid at pH 6.8; assay type: ADME
[20] = Oral bioavailability in rat compound administered as suspension in crystalline freebase in 0.5% (w/v) methylcellulose and 0.2% (w/v) polysorbate 80 in water; assay type: ADME, organism-based; settings: in vivo

T1 sequence (Q06187 whole entry): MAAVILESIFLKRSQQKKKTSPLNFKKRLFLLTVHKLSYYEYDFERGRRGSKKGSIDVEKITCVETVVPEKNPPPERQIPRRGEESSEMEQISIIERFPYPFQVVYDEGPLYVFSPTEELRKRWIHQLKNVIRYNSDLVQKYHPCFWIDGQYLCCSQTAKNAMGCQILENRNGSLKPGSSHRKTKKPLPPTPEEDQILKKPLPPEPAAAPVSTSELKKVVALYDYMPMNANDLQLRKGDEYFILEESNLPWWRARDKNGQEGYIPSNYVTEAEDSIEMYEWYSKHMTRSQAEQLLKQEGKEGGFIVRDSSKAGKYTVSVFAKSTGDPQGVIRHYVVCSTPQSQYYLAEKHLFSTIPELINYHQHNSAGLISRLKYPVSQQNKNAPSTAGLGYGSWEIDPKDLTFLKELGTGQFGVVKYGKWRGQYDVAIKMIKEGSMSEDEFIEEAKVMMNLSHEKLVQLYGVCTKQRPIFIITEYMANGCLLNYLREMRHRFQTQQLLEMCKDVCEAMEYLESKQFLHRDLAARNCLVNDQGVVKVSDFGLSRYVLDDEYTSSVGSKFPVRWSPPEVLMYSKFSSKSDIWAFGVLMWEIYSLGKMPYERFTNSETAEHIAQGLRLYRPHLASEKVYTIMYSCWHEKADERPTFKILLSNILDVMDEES
Sequence of Tyrosine-protein kinase BTK (Mus musculus, UniProt P35991) (P35991 whole entry): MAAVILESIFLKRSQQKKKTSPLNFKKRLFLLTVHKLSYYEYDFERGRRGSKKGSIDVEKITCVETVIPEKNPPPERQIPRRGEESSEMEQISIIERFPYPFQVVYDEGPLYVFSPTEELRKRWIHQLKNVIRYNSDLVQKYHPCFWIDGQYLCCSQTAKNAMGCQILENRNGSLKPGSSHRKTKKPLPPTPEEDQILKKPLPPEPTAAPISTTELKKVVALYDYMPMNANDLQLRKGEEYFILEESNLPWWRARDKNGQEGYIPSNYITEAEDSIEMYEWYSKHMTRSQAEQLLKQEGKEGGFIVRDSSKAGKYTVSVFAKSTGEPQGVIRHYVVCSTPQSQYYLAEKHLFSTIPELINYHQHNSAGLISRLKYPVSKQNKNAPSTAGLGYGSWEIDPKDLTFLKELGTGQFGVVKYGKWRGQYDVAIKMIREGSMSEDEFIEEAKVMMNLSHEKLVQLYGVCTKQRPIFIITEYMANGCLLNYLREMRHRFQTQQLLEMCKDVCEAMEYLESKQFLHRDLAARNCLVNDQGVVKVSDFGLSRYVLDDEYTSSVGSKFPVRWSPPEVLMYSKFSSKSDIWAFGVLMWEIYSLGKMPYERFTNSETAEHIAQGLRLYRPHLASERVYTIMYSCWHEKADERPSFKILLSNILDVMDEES
Sequence of hERG (KCNH2) (Q12809 whole entry): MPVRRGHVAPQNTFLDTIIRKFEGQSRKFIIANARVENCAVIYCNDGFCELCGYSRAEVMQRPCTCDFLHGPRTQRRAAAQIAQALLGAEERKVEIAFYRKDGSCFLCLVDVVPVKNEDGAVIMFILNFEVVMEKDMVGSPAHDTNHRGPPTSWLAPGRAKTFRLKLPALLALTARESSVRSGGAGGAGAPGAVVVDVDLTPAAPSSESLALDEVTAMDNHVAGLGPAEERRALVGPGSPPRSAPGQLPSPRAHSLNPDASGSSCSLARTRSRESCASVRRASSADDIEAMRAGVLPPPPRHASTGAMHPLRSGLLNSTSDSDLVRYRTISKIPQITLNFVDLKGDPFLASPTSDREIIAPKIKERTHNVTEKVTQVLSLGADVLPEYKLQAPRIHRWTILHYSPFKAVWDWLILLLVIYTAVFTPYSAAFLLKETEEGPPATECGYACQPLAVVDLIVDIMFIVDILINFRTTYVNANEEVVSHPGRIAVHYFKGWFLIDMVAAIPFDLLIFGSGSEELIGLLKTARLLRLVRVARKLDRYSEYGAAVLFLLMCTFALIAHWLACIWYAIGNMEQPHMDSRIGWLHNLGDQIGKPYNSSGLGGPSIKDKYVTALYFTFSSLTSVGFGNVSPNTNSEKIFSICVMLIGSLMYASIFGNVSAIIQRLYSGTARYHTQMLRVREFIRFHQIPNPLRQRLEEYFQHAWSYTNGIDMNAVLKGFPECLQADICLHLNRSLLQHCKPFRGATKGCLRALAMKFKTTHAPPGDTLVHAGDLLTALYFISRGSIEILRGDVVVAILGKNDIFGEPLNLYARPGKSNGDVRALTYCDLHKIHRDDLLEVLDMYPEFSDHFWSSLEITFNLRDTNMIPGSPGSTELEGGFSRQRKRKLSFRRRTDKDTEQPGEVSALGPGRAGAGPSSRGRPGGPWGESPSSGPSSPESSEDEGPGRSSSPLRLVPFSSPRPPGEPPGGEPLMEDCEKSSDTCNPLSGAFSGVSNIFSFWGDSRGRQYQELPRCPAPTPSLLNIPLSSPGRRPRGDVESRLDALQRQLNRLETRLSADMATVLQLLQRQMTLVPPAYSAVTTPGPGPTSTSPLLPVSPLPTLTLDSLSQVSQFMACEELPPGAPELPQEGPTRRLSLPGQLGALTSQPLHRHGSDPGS

Compound: Cc1c(NC(=O)c2cc3c(s2)CCCC3)cccc1-c1cn(C)c(=O)c(Nc2cccnc2)n1
- pIC50 [1]: 5.30
- bioavailability [2]: 53%
- clearance [3]: 9.2 mL/min/kg

Compound: Cc1c(NC(=O)c2ccc([Si](C)(C)C)cc2)cccc1-c1cn(C)c(=O)c(Nc2ccc(C(=O)N3CCOCC3)cc2)n1
- pIC50 [4]: 7.05
- pIC50 [1]: 5.96

Compound: Cc1c(NC(=O)c2ncc(C(C)(C)C)cn2)cccc1-c1cn(C)c(=O)c(Nc2ccc(C(=O)N3CCOCC3)cc2)n1
- pIC50 [4]: 7.30

Compound: Cc1c(NC(=O)c2ccc(C(C)(C)O)cc2)cccc1-c1cn(C)c(=O)c(Nc2ccc(C(=O)N3CCOCC3)cc2)n1
- pIC50 [4]: 6.82
- pIC50 [1]: 5.55

Compound: CCC(C)(C)c1ccc(C(=O)Nc2cccc(-c3cn(C)c(=O)c(Nc4ccc(C(=O)N5CCOCC5)cc4)n3)c2C)cc1
- pIC50 [4]: 7.40
- pIC50 [1]: 7.10

Compound: Cc1c(NC(=O)c2cnc(C(C)(C)C)cn2)cccc1-c1cn(C)c(=O)c(Nc2ccc(C(=O)N3CCOCC3)cc2)n1
- pIC50 [4]: 7.15
- pIC50 [1]: 6.05

Compound: Cc1c(N)cccc1-c1cn(C)c(=O)c(Nc2ccc([C@@H]3C(=O)N(C)CCN3C)cc2)n1
- Drug metabolism (Homo sapiens [5]): metabolite_detected

Compound: Cc1c(NC(=O)c2cc3c(s2)CCCC3)cccc1-c1cn(C)c(=O)c(Nc2ccc(C3CCN(C)CC3)cc2)n1
- pIC50 [1]: 7.22
- bioavailability [2]: < 5%
- clearance [3]: 111 mL/min/kg

Compound: Cc1c(NC(=O)c2ccc(C(C)(C)C)s2)cccc1-c1cn(C)c(=O)c(Nc2ccc(C(=O)N3CCOCC3)cc2)n1
- pIC50 [1]: 6.31

Compound: Cc1c(NC(=O)c2ccccc2)cccc1-c1cn(C)c(=O)c(Nc2ccc(C(=O)N3CCOCC3)cc2)n1
- pIC50 [6]: 5.34

Compound: Cc1c(NC(=O)c2cnc(C(C)(C)C)nc2)cccc1-c1cn(C)c(=O)c(Nc2ccc(C(=O)N3CCOCC3)cc2)n1
- pIC50 [4]: 6.57
- pIC50 [1]: 5.43

Compound: Cc1c(NC(=O)c2cc3c(s2)CCCC3)cccc1-c1cn(C)c(=O)c(Nc2ccn3ccnc3c2)n1
- pIC50 [1]: 5.89

Compound: Cc1ccc(C(=O)Nc2cccc(-c3cn(C)c(=O)c(Nc4ccc(C(=O)N5CCOCC5)cc4)n3)c2C)cc1
- pIC50 [6]: 6.07

Compound: Cc1c(NC(=O)c2cc3c(s2)CCCC3)cccc1-c1cn(C)c(=O)c(Nc2ccc(N3CC[C@@H](N(C)C)C3)cc2)n1
- pIC50 [1]: 6.10

Compound: Cc1c(NC(=O)c2cc3c(s2)CCOC3)cccc1-c1cn(C)c(=O)c(Nc2ccc(C(=O)N3CCOCC3)cc2)n1
- pIC50 [1]: 5.89

Compound: CCc1ccc(C(=O)Nc2cccc(-c3cn(C)c(=O)c(Nc4ccc(C(=O)N5CCOCC5)cc4)n3)c2C)cc1
- pIC50 [6]: 6.65

Compound: Cc1c(NC(=O)c2cc3c(s2)CCCC3)cccc1-c1cn(C)c(=O)c(Nc2ccc(-c3ncc[nH]3)cc2)n1
- pIC50 [1]: 4.62

Compound: Cc1c(NC(=O)c2cc3c(s2)CCCC3)cccc1-c1cn(C)c(=O)c(Nc2ccc([C@@H]3C(=O)N(C)CCN3C)cc2)n1
- Activity (Salmonella typhimurium [7]): Non-toxic
- Activity (Salmonella typhimurium [8]): Non-toxic
- bioavailability [9]: 35%
- Activity (Salmonella typhimurium [10]): Non-toxic
- Drug metabolism (Homo sapiens [11]): metabolite_detected
- inhibition at 10 µM (hERG (KCNH2)): 27%
- bioavailability [12]: 18%
- bioavailability [13]: 32%
- clearance [14]: 14 mL/min/kg
- Activity (Salmonella typhimurium [15]): Non-toxic
- clearance [16]: 33 mL/min/kg
- bioavailability [17]: 16%
- clearance [18]: 43 mL/min/kg
- solubility [19]: 7 µg/mL (≈ 11.7 µM)
- bioavailability [2]: 35%
- clearance [3]: 4.4 mL/min/kg
- bioavailability [20]: 16%

Compound: Cc1c(NC(=O)c2cc3c(s2)CCCC3)cccc1-c1cn(C)c(=O)c(Nc2ccc([C@H]3C(=O)N(C)CCN3C)cc2)n1
- bioavailability [2]: 41%
- clearance [3]: 11 mL/min/kg

Compound: Cc1c(NC(=O)c2ccc(C(C)(C)C)cc2)cccc1-c1cn(C)c(=O)c(Nc2ccc(C(=O)N3CCOCC3)cc2)n1
- pIC50 [1]: 6.82

Compound: Cc1c(NC(=O)c2ccc(N(C)C)cc2)cccc1-c1cn(C)c(=O)c(Nc2ccc(C(=O)N3CCOCC3)cc2)n1
- pIC50 [4]: 6.64
- pIC50 [1]: 6.39

Compound: Cc1c(NC(=O)c2ccc(C(C)(C)C)nc2)cccc1-c1cn(C)c(=O)c(Nc2ccc(C(=O)N3CCOCC3)cc2)n1
- pIC50 [4]: 6.89
- pIC50 [1]: 5.46

Compound: Cc1c(NC(=O)c2cc3c(s2)CCCC3)cccc1-c1cn(C)c(=O)c(Nc2ccc(C(=O)N3CCOCC3)cc2)n1
- pIC50 [1]: 6.64
- bioavailability [2]: 29%
- clearance [3]: 6 mL/min/kg

Compound: Cc1c(NC(=O)c2ccc(C3(C)CC3)cc2)cccc1-c1cn(C)c(=O)c(Nc2ccc(C(=O)N3CCOCC3)cc2)n1
- pIC50 [4]: 7.52
- pIC50 [1]: 6.24

Compound: Cc1c(NC(=O)c2cc3c(s2)CCCC3)cccc1-c1cn(C)c(=O)c(Nc2ccncn2)n1
- bioavailability [2]: 37%
- clearance [3]: 5.4 mL/min/kg

Compound: Cc1c(NC(=O)c2cc3c(s2)CCCC3)cccc1-c1cn(C)c(=O)c(Nc2ccc3[nH]ccc3c2)n1
- pIC50 [1]: 5.96
